Literature values in publication PMC10815991, “Membrane-Bound Redox Enzyme Cytochrome bd-I Promotes Carbon Monoxide-Resistant Escherichia coli Growth and Respiration” (International Journal of Molecular Sciences, 2024).

Experiments:
[1] = tested on: cytochrome bd-II; details: read-out: apparent Km(O2); cited from earlier work
[2] = tested on: cytochrome bo3; details: read-out: apparent Km(O2); cited from earlier work

O=O [O2]
Km [1]: 2 µM
Km [2]: 6 µM
